According to PMC8335727 (Inorganic Chemistry, 2021):
Several values for one entry are separate records, joined by “and”; a condition that tells them apart may be missing. Equal values may be shown once.

Key:
SW480 cells = test: Cell cycle distribution by flow cytometry; type: cell-based, human; settings: 24 h
From the text: […] TEXT PRINTED IN THE PICTURE: (A) no label printed: S: 27.7% | (B) no label printed: S: 33.8% | (C) no label printed: S: 44.0% | (D) no label printed: S: 46.5% DOUBTS OF THE COPYIST ABOUT THIS PICTURE: No substance labels are printed in the picture, only the panel letters A-D. / The phase label "S" is printed only in panel A. Applying it to the percentages in panels B, C and D is assumed from where the marker line sits.

MRC-5 = test: MTT cytotoxicity assay, MRC-5; type: cell-based; settings: Homo sapiens, MRC5, 72 h of exposure
Procedure: 2.5. In vitro cell studies
2.5.1. Cell lines and culture conditions
All cell culture reagents were obtained from Sigma-Aldrich and plastic ware from Sarstedt […]
MRC-5 human embryonal lung fibroblast cell line (ATCC CCL-171) was purchased from LGC
Promochem, Teddington, UK. The cell line was cultured in Eagle’s Minimal Essential Medi um
(EMEM, containing 4.5 g/L glucose) supplemented with a non-essential amino acid mixture, a
selection of vitamins and 10% heat-inactivated fetal bovine serum. The cells were incubated at
37°C, in a 5% CO2, 95% air atmosphere. All cell lines were detached with Trypsin-Versene
(EDTA) solution for 5 min at 37 °C.
The tested compounds were dissolved in DMSO using 10 mM concentration. Then stock solutions
were diluted in complete culture medium in 96-well microtiter plates, and two-fold serial dilutions
of compounds were prepared in 100 µL of RPMI 1640, horizontally. The semi-adherent colonic
adenocarcinoma cells were treated with Trypsin -Versene (EDTA) solution. They were adjusted to
a density of 1×10^4 cells in 100 µL of RPMI 1640 medium, and were added to each well, with the
exception of the medium control wells. The final volume of the wells containing compounds and
cells was 200 µL. The culture were incubated at 37 °C for 72 h; at the end of the incubation period,
20 µL of MTT solution (from a stock solution of 5 mg/mL) were added to each well. After
incubation at 37 °C for 4 h, 100 µL of SDS solution (10% in 0.01 M HCI) were added to each well
and the plates were further incubated at 37 °C overnight. The cell growth was determined using
both methods by measuring the optical density (OD) at 450 nm (ref. 620 nm) with a Multiscan EX
ELISA reader. Inhibition of the cell growth (expressed as IC 50: inhibitory concentration that
reduces by 50% the growth of the cells exposed to the tested compounds) was determined from
the sigmoid curve where 100 – ((ODsample ‒ ODmedium control)/(ODcell control ‒ ODmedium control)) × 100
values were plotted against the logarithm of compound concentrations. […]

[1] = log D7.4 by shake-flask method, n-octanol/buffered aqueous solution; type: physicochemical; settings: partitioning, n-octanol/water, pH 7.4, read-out: log D7.4 (proligand)
Procedure: Besides pKa values, lipophilicity is also an important pharmacological property of a drug, as it strongly influences the ability of the compound to pass through biological membranes. Therefore, distribution coefficients (log D7.4) were determined using the shake-flask method in an n-octanol-buffered aqueous solution at pH 7.4 (Table 1). The log D7.4 values indicate the moderate lipophilic character of the proligands. The substitution at the end nitrogen atom of the thosemicarbazide moiety and the presence of a methyl group at the Schiff base bond induce a somewhat higher lipophilicity. The presence of the phenolic moiety undoubtedly increases the log D7.4 values compared to those of FTSC (+0.73),[67]
The time-dependence of UV–vis absorption spectra was monitored for proligands HL2 at pH 7.4, 1.5 and 10.0 in 30% (v/v) DMSO/H2O, and for HL1 and HL3 at pH 7.4.
The redox reaction of the copper(II) complexes (25 µM) with GSH (1250 µM) was studied at 7.40 (50 mM HEPES buffer with 0.1 M KCl) and at 25.0 ± 0.1 °C on Hewlett Packard 8452A diode array spectrophotometer using a special, tightly closed tandem cuvette (Hellma Tandem Cell, 238-QS) as described previously.6,7 Calculation of the observed rate constants (kobs) of the redox reaction was performed by using a reported approach.6,7
Distribution coefficients (D7.4) values were determined by the traditional shake-flask method in n-octanol/buffered aqueous solution at pH 7.40 (50 mM HEPES buffer at 25.0 ± 0.2 °C as described previously in our previous work.8
2.4. Spectroelectrochemical studies
Cyclic voltammetry experiments with 0.5 mM solutions of Cu(II) complexes and corresponding ligands in 0.1 M n-Bu4NPF6 in both DMSO and methanol were performed under argon atmosphere using a three-electrode arrangement with glassy carbon 1 mm disc working electrode (from Ionode, Australia), platinum wire as counter electrode, and silver wire as pseudo -reference electrode. As a supporting e lectrolyte, 0.1 M n-Bu4NPF6 was used in DMSO (SeccoSolv max.
0.025% H2O, Merck) and 0.1 M LiClO4 (≥95.0%, Merck) in methanol. […]

Row | Structure (SMILES) | G1 phase cells (SW480 cells; 1 µM) [%] | G2 phase cells (SW480 cells; 1 µM) [%] | S phase cells (SW480 cells; 1 µM) [%] | G0/G1 phase cells (SW480 cells; 10 µM) | G2/M phase cells (SW480 cells; 10 µM) | S phase cells (SW480 cells; 10 µM) [%] | IC50 (MRC-5) [µM] | logD [1]
1 | Cc1cc(NC(=S)NN=Cc2ccccn2)cc(C)c1O [HL^1, 2-Formylpyridine 4-(4-hydroxy-3,5-dimethylphenyl)thiosemicarbazone] | 48.5 | 19.4 | 32.0 | 49.2% and 49.2 ± 1.6% | 12.3% and 12.3 ± 4.4% | 37.1 ± 4.7 | > 100 | 1.3
2 | CC(=NNC(=S)Nc1cc(C)c(O)c(C)c1)c1ccccn1 [HL^2, 2-Acetylpyridine 4-(4-hydroxy-3,5-dimethylphenyl)thiosemicarbazone] | – | – | – | – | – | – | > 100 | 2.1
3 | Cc1cc(NC(=S)NN=Cc2ncccc2N)cc(C)c1O [HL^3, 3-Amino-2-formylpyridine 4-(4-hydroxy-3,5-dimethylphenyl)thiosemicarbazone] | – | – | – | – | – | – | > 100 | 1.67
